BindingDB's records for doi:10.1016/s0960-894x(98)00214-5 (Glaxowellcome Medicines Research Center, 1999)

Legend:
[1] = molecular target: HIV-2 reverse transcriptase (Human immunodeficiency virus 2); test: Evaluated for inhibition of HIV-2 reverse transcriptase
[2] = molecular target: HIV-2 reverse transcriptase (Human immunodeficiency virus 2); test: Compound was evaluated for inhibition of HIV-2 reverse transcriptase using rC.dG and [3H]-dGTP as substrates at 100 ug/mL
[3] = molecular target: HIV-2 reverse transcriptase (Human immunodeficiency virus 2); test: as above; remark: listed apart in the source

| SMILES | IC50 [1] [µM] | IC50 [2] [µM] | other results |
| --- | --- | --- | --- |
| O=C(CCCCC(=O)Nc1ccccc1C(=O)O)Nc1ccccc1C(=O)O [2-({6-[(2-carboxyphenyl)amino]-6-oxohexanoyl}amino)benzoic acid] | – | 9 | – |
| COc1ccc(NC(=O)CCCCC(=O)Nc2ccc(OC)cc2C(=O)O)c(C(=O)O)c1 [2-[4-(2-carboxy-4-methoxyphenylcarbamoyl)butylcarboxamido]-5-methoxybenzoic acid] | 4.3 | – | – |
| Cc1ccc(NC(=O)CCCCC(=O)Nc2ccc(C)cc2C(=O)O)c(C(=O)O)c1 [2-[4-(2-carboxy-4-methylphenylcarbamoyl)butylcarboxamido]-5-methylbenzoic acid] | – | 9.2 | – |
| CSc1ccc(NC(=O)CCCCC(=O)Nc2ccc(SC)cc2C(=O)O)c(C(=O)O)c1 [2-[4-(2-carboxy-4-methylsulfanylphenylcarbamoyl)butylcarboxamido]-5-methylsulfanylbenzoic acid] | 6.9 | – | – |
| O=C(CCCCC(=O)Nc1ccc(Br)cc1C(=O)O)Nc1ccc(Br)cc1 [5-Bromo-2-[5-(4-bromo-phenylcarbamoyl)-pentanoylamino]-benzoic acid] | – | 32 | – |
| O=C(CCCCCCC(=O)Nc1ccc(Br)cc1C(=O)O)Nc1ccc(Br)cc1C(=O)O [5-bromo-2-[6-(4-bromo-2-carboxyphenylcarbamoyl)hexylcarboxamido]benzoic acid] | – | – | IC50 [3]: 7.4 µM |
| O=C(Nc1ccc(Br)cc1C(=O)O)c1ccc(C(=O)Nc2ccc(Br)cc2C(=O)O)nc1 [5-bromo-2-{[(5-{[(4-bromo-2-carboxyphenyl)amino]carbonyl}pyridin-2-yl)carbonyl]amino}benzoic acid] | – | 5.5 | – |

Second part, led by results:

| IC50 [1] [µM] | IC50 [2] [µM] | SMILES | other results |
| --- | --- | --- | --- |
| 9.6 | – | O=C(CCCC(=O)Nc1ccc(Cl)cc1C(=O)O)Nc1ccc(Cl)cc1C(=O)O [2-({5-[(2-carboxy-4-chlorophenyl)amino]-5-oxopentanoyl}amino)-5-chlorobenzoic acid] | – |
| 1.8 | – | O=C(CCCCC(=O)Nc1ccc(Cl)cc1C(=O)O)Nc1ccc(Cl)cc1C(=O)O [2-({6-[(2-carboxy-4-chlorophenyl)amino]-6-oxohexanoyl}amino)-5-chlorobenzoic acid] | – |
| 1.7 | – | O=C(CCCCC(=O)Nc1ccc(Br)cc1C(=O)O)Nc1ccc(Br)cc1C(=O)O [5-bromo-2-({6-[(4-bromo-2-carboxyphenyl)amino]-6-oxohexanoyl}amino)benzoic acid] | – |
